Measured values published in publication PMC12598805, “Crystal Structure–Activity Relationship of Some MeO Phenylacrylonitriles: Dual Antimicrobial–Cytotoxic Effects and in Silico Perspectives” (ChemistryOpen, 2025).
Converted amounts (≈) assume the structure as drawn.

Assays:
Assay type in all cases: cell-based
[1] = test system: Pseudomonas aeruginosa (ATCC 27853); test: MBC by sub-culture from wells without growth; details: ATCC27853, P.aeruginosa
Experimental: (§1) Pseudomonas aeruginosa (ATCC 27853) […]
(§2) ATCC: American Type Culture Collection; NRRL: Northern Regional Research Laboratory The compounds 2(a-c) obtained could only be completely solubilised with dimethyl sulphoxide (DMSO) and the highest possible stock solutions of 50 mg.mL-1 were prepared. […]
(§3) 3.1. Determination of Minimum Inhibition Concentration (MIC)
(§4) The minimum inhibition concentration (MIC) values of the compounds 2(a-c) against the test bacteria used in the study were determined according to the broth microdilution method.[1-2] MHB or SDB was used as test medium and bacterial and yeast suspensions were prepared at 0.5 Mc Farland concentration for each test bacteria. Double layer serial dilutions were prepared in "U" type 96-well microtiter plates. Medium+bacteria suspensions containing only medium in the first row, medium+bacteria in the second row and the final concentrations of the synthesised substances in the other rows between 25 mg.mL-1 and […] were added to the wells with a final volume of 200
(§5) μL. Ampicillin, Kanamycin and Amphotericin B standard antibiotics were used as positive controls.
(§6) Bacteria were incubated at 37±0.1 °C and C. albicans at 30±0.1 °C for 24-48 hours and the lowest concentration without growth was determined as MIC. Tests were performed in two parallel runs and mean values were given as a result. In order to estimate “the minimum bactericidal/fungicidal concentrations (MBC/MFC) of the synthesised acrylonitrile derivatives “needed to indicate […] killing of the original inoculum,” 10 μl was taken from the wells with no observed growth and further sub-cultured onto their agar media (MHA and SDA for bacterial and fungal strains, respectively).[3] […]

[2] = test system: Micrococcus luteus (NRRL-B-1018); test: MBC by sub-culture from wells without growth; details: NRRLB1018, M.luteus
Experimental: (§7) Micrococcus luteus (NRRL-B-1018) […]
as §2, §3, §4, §5, §6

[3] = test system: Micrococcus luteus (NRRL-B-1018); test: Agar diffusion, zone of inhibition; details: M.luteus, antibiotics at 5 mg mL^−1
Source text: (§8) The antibacterial and antifungal activities were reported utilizing the method described by the Clinical & Laboratory Standards Institute.^[ [31], [32] ^] Agar diffusion method was used to determine the antimicrobial activity of the synthesized substances. The media used were mueller hinton agar (MHA) for bacteria and sabouraud‐dextrose agar (SDA) for fungi (Merck), as recommended by the manufacturer.
(§9) The synthesized compounds were initially investigated for their antimicrobial activity to elucidate the potential therapeutic utility against various pathogenic microbes using the agar plate diffusion method. The compounds were tested at a concentration of 50 mg mL^−1, and the antibiotics (ampicillin, kanamycin, and amphotericin B) were used at 5 mg mL^−1. […] K.pneumoniae and B.cereus were resistant to ampicillin, while they were susceptible to kanamycin with inhibition values of 30 and 26 mm, respectively. No antimicrobial activity of the compounds was observed against E.faecalis, S.typhimurium, K.pneumoniae, and for the fungus compared to Amphotericin B (20 mm). […]
as §7
(§10) ATCC: American Type Culture Collection; NRRL: Northern Regional Research Laboratory The compounds 2(a-c) obtained could only be completely solubilised with dimethyl sulphoxide (DMSO) and the highest possible stock solutions of 50 mg.mL-1 were prepared. To these wells 50 μl of the previously prepared substances were transferred using sterile micropipette tips. For comparison, Ampicillin and kanamycin antibiotics for bacteria and Amphotericin B antibiotics for fungus were used as positive controls and DMSO was used as negative control. The prepared petri plates were kept at +4°C for about 1 hour and then the bacterial cultures were incubated at 37°C for 18-24 hours and mould cultures at 27-30°C for 48-72 hours. The zones formed were measured millimetrically with callipers. The experiments were performed with three repetitions. […]

[4] = test system: Pseudomonas aeruginosa (ATCC 27853); test: Broth microdilution MIC; details: ATCC27853, P.aeruginosa
Experimental: as §1, §2, §3, §4, §5
(§11) Bacteria were incubated at 37±0.1 °C and C. albicans at 30±0.1 °C for 24-48 hours and the lowest concentration without growth was determined as MIC. Tests were performed in two parallel runs and mean values were given as a result. […]

[5] = test system: Enterococcus faecalis (ATCC 29212); test: Agar diffusion, zone of inhibition; details: ATCC29212, E.faecalis, antibiotics at 5 mg mL^−1
Source text: as §8, §9
(§12) Enterococcus faecalis (ATCC 29212) […]
as §10

[6] = test system: Micrococcus luteus (NRRL-B-1018); test: Broth microdilution MIC; details: NRRLB1018, M.luteus
Experimental: as §7, §2, §3, §4, §5, §11

[7] = test system: Escherichia coli (ATCC 25922); test: MBC by sub-culture from wells without growth; details: ATCC25922, E.coli
Experimental: (§13) Escherichia coli (ATCC 25922) […]
as §2, §3, §4, §5, §11

[8] = test system: Enterococcus faecalis (ATCC 29212); test: Broth microdilution MIC; details: ATCC29212, E.faecalis
Experimental: as §12, §2, §3, §4, §5, §11

[9] = test system: Bacillus cereus (ATCC-10876); test: Agar diffusion, zone of inhibition; details: B.cereus, antibiotics at 5 mg mL^−1
Source text: as §8
The synthesized compounds were initially investigated for their antimicrobial activity to elucidate the potential therapeutic utility against various pathogenic microbes using the agar plate diffusion method. The compounds were tested at a concentration of 50 mg mL^−1, and the antibiotics (ampicillin, kanamycin, and amphotericin B) were used at 5 mg mL^−1. […] K.pneumoniae and B.cereus were resistant to ampicillin, while they were susceptible to kanamycin with inhibition values of 30 and 26 mm, respectively. No antimicrobial activity of the compounds was observed against E.faecalis, S.typhimurium, K.pneumoniae, and for the fungus compared to Amphotericin B (20 mm).
Bacillus cereus (ATCC-10876) […]
as §10

[10] = test system: Escherichia coli (ATCC 25922); test: Broth microdilution MIC; details: ATCC25922, E.coli
Experimental: as §13, §2, §3, §4, §5, §11

[11] = test system: Bacillus subtilis (ATCC-19659); test: Agar diffusion, zone of inhibition; details: B.subtilis, antibiotics at 5 mg mL^−1
Source text: as §8, §9, §10

[12] = test system: Escherichia coli (ATCC 25922); test: Agar diffusion, zone of inhibition; details: antibiotics at 5 mg mL^−1
Source text: as §8, §9, §13, §10

[13] = test system: Pseudomonas aeruginosa (ATCC 27853); test: Agar diffusion, zone of inhibition; details: P.aeruginosa, antibiotics at 5 mg mL^−1
Source text: as §8, §9, §1, §10

[14] = test system: Klebsiella pneumoniae (ATCC-70063); test: Agar diffusion, zone of inhibition; details: K.pneumoniae, antibiotics at 5 mg mL^−1
Source text: as §8, §9
Klebsiella pneumoniae (ATCC-70063)
as §10

[15] = test system: Staphylococcus aureus (ATCC 29213); test: MBC by sub-culture from wells without growth; details: ATCC29213, S.aureus
Experimental: (§14) Staphylococcus aureus (ATCC 29213) […]
as §2, §3, §4, §5, §6

[16] = test system: Enterococcus faecalis (ATCC 29212); test: MBC by sub-culture from wells without growth; details: ATCC29212, E.faecalis
Experimental: as §12, §2, §3, §4, §5, §11

[17] = test system: Staphylococcus aureus (ATCC 29213); test: Agar diffusion, zone of inhibition; details: S.aureus, antibiotics at 5 mg mL^−1
Source text: as §8, §9, §14, §10

[18] = test system: Bacillus subtilis (ATCC-19659); test: MBC by sub-culture from wells without growth; details: ATCC19659, B.subtilis
Experimental: as §2, §3, §4, §5, §11

[19] = test system: Salmonella typhimurium (NRRL-B-4420); test: Agar diffusion, zone of inhibition; details: Salmonella enterica; S.typhimurium; antibiotics at 5 mg mL^−1
Source text: as §8, §9
Salmonella typhimurium (NRRL-B-4420) […]
as §10

[20] = test system: Staphylococcus aureus (ATCC 29213); test: Broth microdilution MIC; details: ATCC29213, S.aureus
Experimental: as §14, §2, §3, §4, §5, §11

[21] = test system: Bacillus subtilis (ATCC-19659); test: Broth microdilution MIC; details: ATCC19659
Experimental: as §2, §3, §4, §5, §11

CC1(C)S[C@@H]2[C@H](NC(=O)[C@H](N)c3ccccc3)C(=O)N2[C@H]1C(=O)O [Ampicillin, reference compound]
MBC [1]: 62.5 µg/mL (≈ 179 µM) | MBC [2]: 31.2 µg/mL (≈ 89.4 µM) | zone of inhibition [3]: 44 ± 5.66 mm | zone of inhibition at 5 mg/mL ([3]; Micrococcus luteus, NRRLB1018): 44 mm | MIC [4]: 62.5 µg/mL (≈ 179 µM) | zone of inhibition at 5 mg/mL [5]: 34 ± 0.71 mm | MIC [6]: 31.2 µg/mL (≈ 89.4 µM) | MBC [7]: 31.2 µg/mL (≈ 89.4 µM) | MIC [8]: 250 µg/mL (≈ 715 µM) | zone of inhibition [9]: resistant | zone of inhibition at 5 mg/mL ([9]; Bacillus cereus, ATCC10876): < 6 mm | MIC [10]: 31.2 µg/mL (≈ 89.4 µM) | zone of inhibition [11]: 32 ± 1.41 mm | zone of inhibition at 5 mg/mL ([11]; Bacillus subtilis, ATCC19659): 32 mm | zone of inhibition ([12]; E.coli): 25 ± 0.71 mm | zone of inhibition at 5 mg/mL ([12]; Escherichia coli, ATCC25922, E.coli): 23 mm | zone of inhibition [13]: 30 ± 0.71 mm | zone of inhibition at 5 mg/mL ([13]; Pseudomonas aeruginosa, ATCC27853): 30 mm | zone of inhibition [14]: resistant | zone of inhibition at 5 mg/mL ([14]; Klebsiella pneumoniae, ATCC70063): < 6 mm | MBC [15]: 250 µg/mL (≈ 715 µM) | MBC [16]: 250 µg/mL (≈ 715 µM) | zone of inhibition [17]: 24 ± 1.41 mm | zone of inhibition at 5 mg/mL ([17]; Staphylococcus aureus, ATCC29213): 24 mm | MBC [18]: 25000 µg/mL (≈ 71500 µM) | zone of inhibition at 5 mg/mL [19]: 25 mm | MIC [20]: 250 µg/mL (≈ 715 µM) | MIC [21]: 12500 µg/mL (≈ 35800 µM)
